According to publication PMC4929558, “A novel AhR ligand, 2AI, protects the retina from environmental stress” (Scientific Reports, 2016):

Key:
[1] = target: T1, AhR (XRE-luciferase reporter assay) (Homo sapiens, UniProt P35869); experiment: XRE-luciferase reporter assay in cells; type: cell-based; conditions: agonist
T1 construct: with Aryl hydrocarbon receptor nuclear translocator
T1 sequence (P35869 11-848): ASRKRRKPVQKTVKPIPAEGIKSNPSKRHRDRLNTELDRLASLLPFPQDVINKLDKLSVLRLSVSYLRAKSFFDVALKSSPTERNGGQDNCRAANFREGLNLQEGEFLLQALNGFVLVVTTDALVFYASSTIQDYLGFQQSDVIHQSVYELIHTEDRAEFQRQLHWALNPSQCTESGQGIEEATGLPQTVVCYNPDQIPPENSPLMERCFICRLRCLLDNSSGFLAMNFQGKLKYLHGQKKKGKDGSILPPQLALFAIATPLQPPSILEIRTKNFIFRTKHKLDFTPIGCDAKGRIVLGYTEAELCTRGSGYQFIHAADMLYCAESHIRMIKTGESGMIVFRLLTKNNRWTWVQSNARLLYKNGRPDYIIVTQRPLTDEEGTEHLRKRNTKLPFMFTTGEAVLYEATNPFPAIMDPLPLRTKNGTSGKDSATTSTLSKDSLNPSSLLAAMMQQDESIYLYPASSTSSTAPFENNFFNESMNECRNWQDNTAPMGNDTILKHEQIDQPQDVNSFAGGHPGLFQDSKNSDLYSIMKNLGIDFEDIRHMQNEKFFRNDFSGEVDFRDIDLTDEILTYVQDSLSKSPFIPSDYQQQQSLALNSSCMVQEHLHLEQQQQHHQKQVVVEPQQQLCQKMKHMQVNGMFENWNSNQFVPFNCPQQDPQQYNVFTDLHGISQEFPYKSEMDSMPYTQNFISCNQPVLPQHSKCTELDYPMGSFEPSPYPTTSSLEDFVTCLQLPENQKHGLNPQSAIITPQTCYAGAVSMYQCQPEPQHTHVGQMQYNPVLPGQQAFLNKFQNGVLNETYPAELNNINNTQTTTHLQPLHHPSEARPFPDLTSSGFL

[2] = target: T2, human AhR protein (humanized AhR liver cytosol) (Homo sapiens, UniProt P35869); experiment: photoaffinity ligand competition, hepatic cytosol; type: binding; conditions: competition with 2-azido-3-[125I]iodo-7,8-dibromodibenzo-p-dioxin (0.21 pmol, saturating), 150 μg liver protein, room temperature 20 min, then UV 402 nm
T2 construct: human AhR expressed in liver of humanized transgenic mice, B6.Cg-Ahr^tm3.1Bra Tg (Alb-cre, Ttr-AhR)1GHP; hepatic cytosol, not purified
T2 sequence (P35869 11-848): T1 sequence (P35869 11-848)

[3] = target: T2, human AhR protein (humanized AhR liver cytosol); experiment: photoaffinity labelling, SDS-PAGE, gamma counting; type: binding; conditions: labelled compound; covalent after UV photolysis; 0.21 pmol per tube, 150 μg liver protein

| EC50 [1] [µM] | Compound | % photoaffinity label bound [2] | photoaffinity labelling, SDS-PAGE, gamma counting [3] |
| --- | --- | --- | --- |
| 3.5 | Nc1ccccc1-c1cc2ccccc2[nH]1 [2AI] | 2AI was able to out-compete the photoaffinity label bound to the human AhR protein | – |
| – | [N-]=[N+]=Nc1cc2c(cc1I)Oc1cc(Br)c(Br)cc1O2 [PAL, 2-azido-3-[125I]iodo-7,8-dibromodibenzo-p-dioxin] | – | Labeled AHR bands were excised and counted using a γ counter |
